Measurements published in US5326751A, “Enkephalin analogs” (Arizona Board of Regents on behalf of the University of …, priority 1992, dated 1994).
Bridge positions count the residues as written; N and C are the ends. Square brackets hold non-standard residues; d marks the D form. Peptide text beside a SMILES is read from it. Phe(4-NO2) = N[C@@H](Cc1ccc([N+](=O)[O-])cc1)C(=O)O; Phe(4-Br) = N[C@@H](Cc1ccc(Br)cc1)C(=O)O; Phe(4-Cl) = N[C@@H](Cc1ccc(Cl)cc1)C(=O)O; Phe(4-F) = N[C@@H](Cc1ccc(F)cc1)C(=O)O; Phe(4-I) = N[C@@H](Cc1ccc(I)cc1)C(=O)O; dPen = CC(C)(S)[C@@H](N)C(=O)O; dAbu = CC[C@@H](N)C(=O)O; Ac5c = NC1(C(=O)O)CCCC1; Abu = CC[C@H](N)C(=O)O

Experiments:
[1] = target: T1, mouse vas deferens (MVD), primarily delta-type opiate receptors (Mus musculus, UniProt P32300); experiment: mouse vas deferens (MVD) assay: inhibition of electrically induced muscle contractions; format: cell-based; conditions: for IC50: mouse vas deferens, electrically stimulated contractions, read-out: IC50 (nM) ± S.E.E. MVD
T1 construct: from tissue; host or cells: mouse vas deferens
Description: The MVD preparation contains primarily delta-type opiate receptors, with some kappa and mu receptors.
The mouse vas deferens was prepared following the method of Hughes, et al. cites Brit. J. Pharmacol., 53, 371-381 (1975). One pair of vasa deferentia was used in each experiment.

mu-type opioid receptors = target: T2, mu-type opioid receptors (Rattus norvegicus, UniProt P33535); experiment: displacement of [3H]CTOP in rat brain homogenate; format: binding; conditions: 25° C., read-out: IC50 (nM) ± S.E.E. [3H] CTOP
T2 construct: Whole brains with cerebellum removed were homogenized in 100 volumes of Tris-HCl buffer; from tissue; host or cells: rat brain (without cerebellum), washed homogenate
Description: (§1) The binding potencies of each compound for mu and delta receptors in rat brain extracts was determined by competition assays against radiolabelled compounds known to bind opioid receptors. […] The ability of a tested compound to displace tritiated ligands from their respective receptor molecules is a measure of the compound's binding potency for the receptor of the displaced ligand.
(§2) Brains from male Sprague-Dawley rats were rapidly removed following sacrifice. Whole brains with cerebellum removed were homogenized in 100 volumes of Tris-HCl buffer (pH 7.4 at 25°). Tissue homogenates were washed twice in the same buffer by centrifugation at 48,000 g for 10 min. Pellets were resuspended in the same buffer.
(§3) Filter-bound radioactivity was quantitated by liquid scintillation spectrophotometry with an efficiency of 46%. Radio-ligand displaced by 1 μM natrexone hydrochloride was defined as specific tissue binding.

[2] = target: T3, delta-type opioid receptors (Rattus norvegicus, UniProt P33533); experiment: displacement of [3H][p-Cl-Phe4]DPDPE in rat brain homogenate; format: binding; conditions: for IC50: rat brain homogenate, 1 nM radioligand, 25° C., 40 min, read-out: IC50 (nM) ± S.E.E. [3H] p-Cl-DPDPE
T3 construct: Whole brains with cerebellum removed were homogenized in 100 volumes of Tris-HCl buffer; from tissue; host or cells: rat brain (without cerebellum), washed homogenate
Description: as §1, §2
Total incubation volume was 2 ml. After 40 min., the mixture was rapidly filtered through Whatman GF/B glass fiber filters and washed 3 times with 5 ml of ice-cold buffer.
as §3

[3] = target: guinea pig ileum (GPI), primarily mu-type opiate receptors (Cavia porcellus, UniProt P97266); experiment: guinea pig ileum (GPI) assay: inhibition of electrically induced muscle contractions; format: cell-based; parameters: inh in GPI: dose or concentration left out as unconfirmed; conditions: for IC50: guinea pig ileum, electrically stimulated contractions, read-out: IC50 (nM) ± S.E.E. GPI
Description: The guinea pig ileum longitudinal muscle-myenteric plexus preparation was prepared following the method of Kosterlitz, et al. Brit. J. Pharmacol., 39, 398-413 (1970). Agonists were added to the tissue bath and remained in contact with the tissue for a maximum of three minutes.

Chain of guinea pig ileum (GPI), primarily mu-type opiate receptors (P97266 whole entry, looked up): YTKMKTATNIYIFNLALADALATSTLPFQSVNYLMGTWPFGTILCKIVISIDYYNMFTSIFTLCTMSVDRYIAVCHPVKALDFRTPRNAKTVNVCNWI
T2 sequence (P33535 whole entry): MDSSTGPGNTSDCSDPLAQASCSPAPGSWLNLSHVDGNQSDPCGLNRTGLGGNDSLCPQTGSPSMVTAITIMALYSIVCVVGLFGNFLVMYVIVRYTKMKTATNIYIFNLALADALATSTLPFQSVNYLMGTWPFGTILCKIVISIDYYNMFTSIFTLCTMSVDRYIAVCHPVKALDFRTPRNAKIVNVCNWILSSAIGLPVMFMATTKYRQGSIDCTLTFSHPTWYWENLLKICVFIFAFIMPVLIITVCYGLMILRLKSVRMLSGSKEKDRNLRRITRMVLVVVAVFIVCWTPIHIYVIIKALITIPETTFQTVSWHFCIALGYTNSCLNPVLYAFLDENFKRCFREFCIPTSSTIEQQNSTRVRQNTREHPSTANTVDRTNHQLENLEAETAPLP
T1 sequence (P32300 whole entry): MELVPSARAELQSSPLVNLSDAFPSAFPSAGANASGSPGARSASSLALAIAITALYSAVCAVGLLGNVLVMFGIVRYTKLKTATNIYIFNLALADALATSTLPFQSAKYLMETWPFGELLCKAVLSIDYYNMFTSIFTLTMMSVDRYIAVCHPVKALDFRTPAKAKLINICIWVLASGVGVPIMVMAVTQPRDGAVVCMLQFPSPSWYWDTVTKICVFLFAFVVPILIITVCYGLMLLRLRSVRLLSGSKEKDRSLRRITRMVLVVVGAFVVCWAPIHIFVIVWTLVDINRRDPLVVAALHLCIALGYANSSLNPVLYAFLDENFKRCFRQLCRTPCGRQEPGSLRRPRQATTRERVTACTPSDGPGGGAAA
T3 sequence (P33533 whole entry): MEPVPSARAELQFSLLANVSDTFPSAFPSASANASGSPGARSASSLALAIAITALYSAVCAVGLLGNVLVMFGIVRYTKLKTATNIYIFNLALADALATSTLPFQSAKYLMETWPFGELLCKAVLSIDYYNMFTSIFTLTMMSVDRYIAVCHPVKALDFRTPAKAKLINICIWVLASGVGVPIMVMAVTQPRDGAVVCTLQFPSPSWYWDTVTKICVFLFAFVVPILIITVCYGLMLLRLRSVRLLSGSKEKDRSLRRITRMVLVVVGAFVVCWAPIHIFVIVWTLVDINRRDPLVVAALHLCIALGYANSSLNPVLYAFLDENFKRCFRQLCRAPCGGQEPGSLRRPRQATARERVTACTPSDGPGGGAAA

Structure (SMILES) | IC50 [1] [nM] | IC50 (mu-type opioid receptors) [nM] | IC50 [2] [nM] | IC50 [3] [nM] | inh in GPI [3] [% inh] | RATIO (μ/δ), Table 1 ([1]; GPI IC50 / MVD IC50) | RATIO (μ/δ), Table 2 ([2]; [3H]CTOP IC50 / [3H]p-Cl-DPDPE IC50, rat brain)
CC1(C)SSC(C)(C)[C@@H](NC(=O)[C@@H](N)Cc2ccc(O)cc2)C(=O)NC2(CCCC2)C(=O)N[C@@H](Cc2ccccc2)C(=O)N[C@H]1C(=O)O [[AC5 C^3]DPDPE] (H-Y[dPen][Ac5c]F[dPen]-OH; disulfide 2-5) | 370 ± 162 | 1760 ± 45 | 312 ± 39 | 857 ± 31.7 | – | – | –
CC[C@H]1NC(=O)[C@H](NC(=O)[C@@H](N)Cc2ccc(O)cc2)C(C)(C)SSC(C)(C)[C@H](C(=O)O)NC(=O)[C@H](Cc2ccccc2)NC1=O [[D--Abu^3]DPDPE] (H-Y[dPen][dAbu]F[dPen]-OH; disulfide 2-5) | 1950 ± 204 | > 50000 | 3380 ± 1070 | 29900 ± 2670 | – | – | –
C[C@H]1NC(=O)[C@H](NC(=O)[C@@H](N)Cc2ccc(O)cc2)C(C)(C)SSC(C)(C)[C@H](C(=O)O)NC(=O)[C@H](Cc2ccccc2)NC1=O [[D--Ala^3]DPDPE] (H-Y[dPen][dA]F[dPen]-OH; disulfide 2-5) | 572 ± 131 | > 35000 | 535 ± 58 | 33300 ± 817 | – | – | –
CC1(C)SSC(C)(C)[C@@H](NC(=O)[C@@H](N)Cc2ccc(O)cc2)C(=O)N[C@H](CO)C(=O)N[C@@H](Cc2ccccc2)C(=O)N[C@H]1C(=O)O [[D--Ser^3]DPDPE] (H-Y[dPen][dS]F[dPen]-OH; disulfide 2-5) | 1280 ± 245 | > 50000 | 764 ± 106 | – | 3 | – | –
CC[C@@H]1NC(=O)[C@H](NC(=O)[C@@H](N)Cc2ccc(O)cc2)C(C)(C)SSC(C)(C)[C@H](C(=O)O)NC(=O)[C@H](Cc2ccccc2)NC1=O [[L--Abu^3]DPDPE] (H-Y[dPen][Abu]F[dPen]-OH; disulfide 2-5) | 84.9 ± 12.5 | 12000 ± 938 | 66.3 ± 30.4 | 4870 ± 345 | – | – | –
C[C@@H]1NC(=O)[C@H](NC(=O)[C@@H](N)Cc2ccc(O)cc2)C(C)(C)SSC(C)(C)[C@H](C(=O)O)NC(=O)[C@H](Cc2ccccc2)NC1=O [[L--Ala^3 ]DPDPE (DPADPE), L-Tyrosyl-D-penicillaminyl-L--alanyl-L-phenylalanyl-D-penicillaminyl cyclic (2-5) disulfide] (H-Y[dPen]AF[dPen]-OH; disulfide 2-5) | 11.8 ± 1.62 | 11000 ± 13 | 18.4 ± 0.43 | 121000 ± 81400 | – | 10,315 | 598
CC1(C)SSC(C)(C)[C@@H](NC(=O)[C@@H](N)Cc2ccc(O)cc2)C(=O)N[C@@H](CO)C(=O)N[C@@H](Cc2ccccc2)C(=O)N[C@H]1C(=O)O [[L--Ser^3]DPDPE] (H-Y[dPen]SF[dPen]-OH; disulfide 2-5) | 252 ± 32.5 | > 22500 | 42 ± 3 | 39400 ± 7160 | – | – | –
C[C@@H]1NC(=O)[C@H](NC(=O)[C@@H](N)Cc2ccc(O)cc2)C(C)(C)SSC(C)(C)[C@H](C(=O)O)NC(=O)[C@H](Cc2ccc(Br)cc2)NC1=O [[p-Br--Phe^4 ]DPADPE] (H-Y[dPen]A[Phe(4-Br)][dPen]-OH; disulfide 2-5) | 2.95 ± 0.686 | 2710 ± 453 | 5.3 ± 0.86 | 40800 ± 2950 | – | – | –
C[C@@H]1NC(=O)[C@H](NC(=O)[C@@H](N)Cc2ccc(O)cc2)C(C)(C)SSC(C)(C)[C@H](C(=O)O)NC(=O)[C@H](Cc2ccc(Cl)cc2)NC1=O [[p-Cl--Phe^4 ]DPADPE] (H-Y[dPen]A[Phe(4-Cl)][dPen]-OH; disulfide 2-5) | 1.94 ± 0.295 | 1120 ± 260 | 3.7 ± 0.9 | 25500 ± 10300 | – | – | –
C[C@@H]1NC(=O)[C@H](NC(=O)[C@@H](N)Cc2ccc(O)cc2)C(C)(C)SSC(C)(C)[C@H](C(=O)O)NC(=O)[C@H](Cc2ccc(F)cc2)NC1=O [[p-F--Phe^4 ]DPADPE] (H-Y[dPen]A[Phe(4-F)][dPen]-OH; disulfide 2-5) | 3.61 ± 0.367 | 1460 ± 253 | 0.55 ± 0.14 | 4600 ± 1010 | – | – | –
C[C@@H]1NC(=O)[C@H](NC(=O)[C@@H](N)Cc2ccc(O)cc2)C(C)(C)SSC(C)(C)[C@H](C(=O)O)NC(=O)[C@H](Cc2ccc(I)cc2)NC1=O [[p-I--Phe^4 ]DPADPE] (H-Y[dPen]A[Phe(4-I)][dPen]-OH; disulfide 2-5) | 11 ± 1.23 | 3670 ± 396 | 12.5 ± 0.5 | 30800 ± 1550 | – | – | –
C[C@@H]1NC(=O)[C@H](NC(=O)[C@@H](N)Cc2ccc(O)cc2)C(C)(C)SSC(C)(C)[C@H](C(=O)O)NC(=O)[C@H](Cc2ccc([N+](=O)[O-])cc2)NC1=O [[p-NO2 --Phe^4 ]DPADPE] (H-Y[dPen]A[Phe(4-NO2)][dPen]-OH; disulfide 2-5) | 3.74 ± 0.356 | 712 ± 3 | 3.5 ± 0.25 | 13500 ± 1210 | – | – | –
